Counter-ions that a name gives are not always drawn.
Target: T1, human neutrophil elastase (Homo sapiens, UniProt P08246)
T1 sequence (P08246 30-247 limits assumed): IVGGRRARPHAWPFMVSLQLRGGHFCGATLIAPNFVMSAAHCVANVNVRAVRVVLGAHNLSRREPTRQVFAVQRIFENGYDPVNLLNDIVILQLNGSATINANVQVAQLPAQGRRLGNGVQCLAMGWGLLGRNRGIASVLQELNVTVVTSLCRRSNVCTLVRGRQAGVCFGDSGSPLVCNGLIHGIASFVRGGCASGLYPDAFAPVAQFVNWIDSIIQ
Experiment: In vitro Assays of Human Neutrophil Elastase
Format: biochemical
Details: purified human neutrophil elastase 11.8 nM, pH 8.6, 15 min incubation at 30° C., 0.6 mM MeO-succinyl-alanyl-alanyl-prolyl-valyl-p-nitroanilide, 405 nm
Procedure: In vitro Assays of Human Neutrophil Elastase Assay contents: 50 mM Tris/HCl (pH 8.6) 150 mM NaCl 11.8 nM purified human neutrophil elastase Suitable concentrations of compound under test diluted with water from a 10 mM stock solution in dimethylsulphoxide. Values above are final concentrations after the addition of substrate solution (see below). The mixture above is incubated for fifteen minutes at 30° C. at which time the remaining elastase activity is measured for 10 minutes in a BioTek 340i plate-reader, after the addition of 0.6 mM MeO-succinyl-alanyl-alanyl-prolyl-valyl-p-nitroanilide. The rate of increase in absorbance at 405 nm is proportional to elastase activity. Enzyme activity is plotted against concentration of inhibitor and an IC50 determined using curve fitting software. 1. The compounds of Examples 1 to 7 were tested in the in vitro elastase test described earlier in the description.

SMILES | IC50
CCC[C@H]1C(=O)N(S(C)(=O)=O)[C@H]2CN(C(=O)C=CCN3CCCCC3)C[C@H]12 (relative stereo) [Example 1, rel-(3R,3aS,6aR)-1-Methanesulfonyl-5-(4-piperidin-1-yl-but-2-enoyl)-3-propyl-hexahydro-pyrrolo[3,4-b]pyrrol-2-one hydrochloride] | 227 nM
CCC[C@H]1C(=O)N(S(C)(=O)=O)[C@H]2CN(C(=O)CCCN3CCCCC3)C[C@H]12 (relative stereo) [Example 2, rel-(3R,3aS,6aR)-1-Methanesulfonyl-5-(4-piperidin-1-yl-butyryl)-3-propyl-hexahydro-pyrrolo[3,4-b]pyrrol-2-one] | 900 nM
CCC[C@H]1C(=O)N(S(C)(=O)=O)[C@H]2CN(S(=O)(=O)c3ccc(NC(C)=O)cc3)C[C@H]12 (relative stereo) [Example 3, rel-N-[4-(1-Methanesulfonyl-2-oxo-3R-propylhexahydro-(3aS,6aR)-pyrrolo[3,4-b]pyrrole-5-sulfonyl)-phenyl]acetamide] | 229 nM
CCC[C@H]1C(=O)N(S(C)(=O)=O)[C@H]2CN(C(=O)c3ccc(CN4CCCCC4)cc3)C[C@H]12 (relative stereo) [Example 4, rel-(3R,3aS,6aR)-1-Methanesulfonyl-5-(4-piperidin-1-ylmethyl-benzoyl)-3-propyl-hexahydro-pyrrolo[3,4-b]pyrrol-2-one hydrochloride] | 296 nM
CCC[C@H]1C(=O)N(S(C)(=O)=O)[C@H]2CN(C(=O)c3ccc(CN4CCOCC4)cc3)C[C@H]12 (relative stereo) [Example 5, rel-(3R,3aS,6aR)-1-Methanesulfonyl-5-(4-morpholin-4-ylmethyl-benzoyl)-3-propyl-hexahydro-pyrrolo[3,4-b]pyrrol-2-one hydrochloride] | 222 nM
CCC[C@H]1C(=O)N(S(C)(=O)=O)[C@H]2CN(C(=O)c3cc(CN4CCOCC4)on3)C[C@H]12 (relative stereo) [Example 6, rel-(3R,3aS,6aR)-1-Methanesulfonyl-5-(5-morpholin-4-ylmethyl-isoxazole-3-carbonyl)-3-propyl-hexahydro-pyrrolo[3,4-b]pyrrol-2-one hydrochloride] | 146 nM
CCC[C@H]1C(=O)N(S(C)(=O)=O)[C@H]2CN(C(=O)c3cc(CN(C)C)on3)C[C@H]12 (relative stereo) [Example 7, rel-(3R,3aS,6aR)-5-(5-Dimethylaminomethyl-isoxazole-3-carbonyl)-1-methanesulfonyl-3-propyl-hexahydro-pyrrolo[3,4-b]pyrrol-2-one hydrochloride] | 399 nM

Reference: patent publication US6177425A, “Pyrrolopyrrolone derivatives” (Glaxo Wellcome Inc., priority 1997, dated 2001)
